Laboratory results: patent US10358427B2, “Modulators of indoleamine 2,3-dioxygenase” (GLAXOSMITHKLINE INTELLECTUAL PROPERTY DEVELOPMENT LIMITED, priority 2015, dated 2019)

What was measured:
[1] = biological target: T1, indoleamine 2, 3-dioxygenase (IDO1) (Homo sapiens, UniProt P14902); assay: PBMC IDOi assay (kynurenine detection via mass spectrometry); assay type: cell-based; settings: human PBMC stimulated with IFN-γ and LPS; kynurenine by mass spectrometry; 2 days incubation
Procedure: (§1) Compounds of the present invention were tested via high-throughput cellular assays utilizing detection of kynurenine via mass spectrometry and cytotoxicity as end-points. For the mass spectrometry and cytotoxicity assays, human peripheral blood mononuclear cells (PBMC) (PB003F; AlICells®, Alameda, Calif.) were stimulated with human interferon-γ (IFN-γ) (Sigma-Aldrich Corporation, St. Louis, Mo.) and lipopolysaccharide from Salmonella minnesota (LPS) (Invivogen, San Diego, Calif.) to induce the expression of indoleamine 2, 3-dioxygenase (IDO1). Compounds with IDO1 inhibitory properties decreased the amount of kynurenine produced by the cells via the tryptophan catabolic pathway. Cellular toxicity due to the effect of compound treatment was measured using CellTiter-Glo® reagent (CTG) (Promega Corporation, Madison, Wis.), which is based on luminescent detection of ATP, an indicator of metabolically active cells.
(§2) In preparation for the assays, test compounds were serially diluted 3-fold in DMSO from a typical top concentration of 5 mM and plated at 0.5 μL in 384-well, polystyrene, clear bottom, tissue culture treated plates with lids (Greiner Bio-One, Kremsmünster, Austria) to generate 11-point dose response curves. Low control wells (0% kynurenine or 100% cytotoxicity) contained either 0.5 μL of DMSO in the presence of unstimulated (−IFN-γ/−LPS) PBMCs for the mass spectrometry assay or 0.5 μL of DMSO in the absence of cells for the cytotoxicity assay, and high control wells (100% kynurenine or 0% cytotoxicity) contained 0.5 μL of DMSO in the presence of stimulated (+IFN-γ/+LPS) PBMCs for both the mass spectrometry and cytotoxicity assays.
Frozen stocks of PBMCs were washed and recovered in RPMI 1640 medium (Thermo Fisher Scientific, Inc., Waltham, Mass.) supplemented with 10% v/v heat-inactivated fetal bovine serum (FBS) (Thermo Fisher Scientific, Inc., Waltham, Mass.), and 1× penicillin-streptomycin antibiotic solution (Thermo Fisher Scientific, Inc., Waltham, Mass.). The cells were diluted to 1,000,000 cells/mL in the supplemented RPMI 1640 medium. 50 μL of either the cell suspension, for the mass spectrometry assay, or medium alone, for the cytotoxicity assay, were added to the low control wells, on the previously prepared 384-well compound plates, resulting in 50,000 cells/well or 0 cells/well respectively. IFN-γ and LPS were added to the remaining cell suspension at final concentrations of 100 ng/ml and 50 ng/ml respectively, and 50 μL of the stimulated cells were added to all remaining wells on the 384-well compound plates. The plates, with lids, were then placed in a 37° C., 5% CO2 humidified incubator for 2 days.
(§3) Following incubation, the 384-well plates were removed from the incubator and allowed to equilibrate to room temperature for 30 minutes. For the cytotoxicity assay, CellTiter-Glo® was prepared according to the manufacturer's instructions, and 40 μL were added to each plate well. After a twenty minute incubation at room temperature, luminescence was read on an EnVision® Multilabel Reader (PerkinElmer Inc., Waltham, Mass.). For the mass spectrometry assay, 10 μL of supernatant from each well of the compound-treated plates were added to 40 μL of acetonitrile, containing 10 μM of an internal standard for normalization, in 384-well, polypropylene, V-bottom plates (Greiner Bio-One, Kremsmünster, Austria) to extract the organic analytes. Following centrifugation at 2000 rpm for 10 minutes, 10 μL from each well of the acetonitrile extraction plates were added to 90 μL of sterile, distilled H2O in 384-well, polypropylene, V-bottom plates for analysis of kynurenine and the internal standard on the RapidFire 300 (Agilent Technologies, Santa Clara, Calif.) and 4000 QTRAP MS (SCIEX, Framingham, Mass.). MS data were integrated using Agilent Technologies' RapidFire Integrator software, and data were normalized for analysis as a ratio of kynurenine to the internal standard. […]

[2] = biological target: T1, indoleamine 2, 3-dioxygenase (IDO1); assay: HeLa IDOi assay (kynurenine detection via mass spectrometry); assay type: cell-based; set-up: human epithelial HeLa cells (CCL-2; host or cells: HeLa cells stimulated with human IFN-γ; settings: human epithelial HeLa cells stimulated with IFN-γ; kynurenine by mass spectrometry; 2 days incubation
Procedure: as §1, with “epithelial HeLa” for “peripheral blood mononuclear”, “(CCL-2; ATCC®, Manassas, Va.)” for “(PBMC) (PB003F; AlICells®, Alameda, Calif.)”, “Mo.)” for “Mo.) and lipopolysaccharide from Salmonella minnesota (LPS) (Invivogen, San Diego, Calif.)”
as §2, with “(−IFN-γ) HeLa cells” for “(−IFN-γ/−LPS) PBMCs”, “(+IFN-γ) HeLa cells” for “(+IFN-γ/+LPS) PBMCs”
Frozen stocks of HeLa cells were washed and recovered in DMEM high glucose medium with HEPES (Thermo Fisher Scientific, Inc., Waltham, Mass.) supplemented with 10% v/v certified fetal bovine serum (FBS) (Thermo Fisher Scientific, Inc., Waltham, Mass.), and 1× penicillin-streptomycin antibiotic solution (Thermo Fisher Scientific, Inc., Waltham, Mass.). The cells were diluted to 100,000 cells/mL in the supplemented DMEM medium. 50 μL of either the cell suspension, for the mass spectrometry assay, or medium alone, for the cytotoxicity assay, were added to the low control wells, on the previously prepared 384-well compound plates, resulting in 5,000 cells/well or 0 cells/well respectively. IFN-γ was added to the remaining cell suspension at a final concentration of 10 nM, and 50 μL of the stimulated cells were added to all remaining wells on the 384-well compound plates. The plates, with lids, were then placed in a 37° C., 5% CO2 humidified incubator for 2 days.
as §3, with “instructions, and 10 μL were” for “instructions, and 40 μL were”

T1 sequence (P14902 whole entry): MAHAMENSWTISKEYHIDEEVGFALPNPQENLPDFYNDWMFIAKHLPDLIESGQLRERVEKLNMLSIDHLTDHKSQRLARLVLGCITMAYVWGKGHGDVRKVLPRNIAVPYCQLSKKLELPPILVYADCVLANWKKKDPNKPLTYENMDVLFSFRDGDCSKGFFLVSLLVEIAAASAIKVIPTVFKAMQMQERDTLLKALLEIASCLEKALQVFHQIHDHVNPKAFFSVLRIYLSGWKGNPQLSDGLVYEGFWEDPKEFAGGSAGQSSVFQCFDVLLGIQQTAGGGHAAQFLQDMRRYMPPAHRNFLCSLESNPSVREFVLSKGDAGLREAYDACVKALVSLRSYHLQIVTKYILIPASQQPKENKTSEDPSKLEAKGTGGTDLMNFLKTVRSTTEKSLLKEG

Row | EC50 [1] [nM] | EC50 [2] [nM] | Structure (SMILES)
1 | 63.1 | 100 | CCCC(CCC)Oc1ccc(-c2ccccc2-c2nnn[nH]2)cc1Nc1nc2ccccc2o1 [Example 16, N-(4-(Heptan-4-yloxy)-2′-(1H-tetrazol-5-yl)-[1,1′-biphenyl]-3-yl)benzo[d]oxazol-2-amine]
2 | 1 | 2 | CC(C)CN(c1ccc(-c2ccccc2C(=O)O)cc1Nc1nc(C(F)(F)F)ns1)C1CCCCC1 [Example 17, 4′-(Cyclohexyl(isobutyl)amino)-3′((3-(trifluoromethyl)-1,2,4-thiadiazol-5-yl)amino)-[1,1′-biphenyl]-2-carboxylic acid]
3 | 1.26 | 2.51 | CC(C)CN(c1ccc(-c2ccccc2-c2nnn[nH]2)cc1Nc1nc(C(F)(F)F)ns1)C1CCCCC1 [Example 18, N^4-cyclohexyl-N^4-isobutyl-2′-(1H-tetrazol-5-yl)-N^3-(3-(trifluoromethyl)-1,2,4-thiadiazol-5-yl)-[1,1′-biphenyl]-3,4-diamine]
4 | 1.58 | 6.31 | CC(C)CN(c1ccc(-c2ccccc2-c2nnn[nH]2)cc1Nc1nc2ccccc2[nH]1)C1CCCCC1 [Example 19, N^3-(1H-benzo[d]imidazol-2-yl)-N^4-cyclohexyl-N^4-isobutyl-2′-(1H-tetrazol-5-yl)-[1,1′-biphenyl]-3,4-diamine]
5 | 0.794 | 2 | CC(C)CN(c1ccc(-c2ccccc2C(=O)O)cc1Nc1nnc(C2CC2)s1)C1CCCCC1 [Example 20, 4′-(Cyclohexyl(isobutyl)amino)-3′((5-cyclopropyl-1,3,4-thiadiazol-2-yl)amino)-[1,1′-biphenyl]-2-carboxylic acid]
6 | 1.58 | 3.16 | CC(C)CN(c1ccc(-c2ccccc2-c2nnn[nH]2)cc1Nc1nnc(C2CC2)s1)C1CCCCC1 [Example 21, N^4-Cyclohexyl-N^3-(5-cyclopropyl-1,3,4-thiadiazol-2-yl)-N^4-isobutyl-2′-(1H-tetrazol-5-yl)-[1,1′-biphenyl]-3,4-diamine]
